From patent US9463256B2, “Pretargeting kit, method and agents used therein” (KONINKLIJKE PHILIPS N.V., priority 2010, dated 2016) come the findings set out here.

Molecules are shown by their SMILES.

Series [1] can be described thus: Trans-cyclooctene stability in vivo (blood samples reacted with excess ^111In-tetrazine 28). Details: species or system mice. The following applies: for in vivo stability of CC49-bound TCO (reactive TCO in blood, corrected for mAb clearance): tumor-free mice, up to 4 days post injection. As to the method: Tumor-free mice (n=3 per group) were injected intravenously with CC49-PEG10-TCO-O major (CC49-23a; 8.4 TCO per CC49; 300 μg/100 μL per mouse), CC49-PEG10-TCO-C minor (CC49-27b; 3.3 TCO per CC49, […]), and CC49-TCO-O major without spacer (CC49-20a; 8.0 TCO per CC49, 300 μg/100 μL per mouse). At selected time points (from 1 hour up to 4 days post injection) blood samples were withdrawn from the vena saphena and collected in vials containing heparin. The blood samples were weighed and an excess ^111In-tetrazine 28 was added. After 20 min incubation at 37° C., blood aliquots were 10-fold diluted with PBS and analyzed by SDS-PAGE. The cycloaddition yields were determined from the radioactivity in the bands corresponding to the mAb and the counts were quantified with AIDA Image Analyzer software. The amount of mAb present in blood at each time point (% ID/g blood) was evaluated in three separate groups of mice (n=3), which were injected with the corresponding ^125I—CC49-TCO (300 μg/100 μL per mouse, ca. 0.2 MBq). The data, corrected for mAb clearance, were normalized to 100% ID TCO at t=0.
This experiment was carried out to expand the series of in vivo TCO stability measurements described in Example 6. […] In the new experiment, following the same procedure, we tested the in vivo stability of a CC49-bound TCO minor without PEG spacer (20b, 6.9 equivalents bound).

The nature of series [2]: In vitro reaction yields of CC49-bound TCO with tetrazine probe 28 at low concentration. The series is classed as physicochemical. The following applies: TCO conjugated to CC49; 1 min at 37° C. in PBS; micromolar concentrations and lower. The method, then:
To this aim we used a TCO major 20a (k2=19600±1400 M^−1s^−1) and a TCO minor 20b (k2=136700±2300 M^−1s^−1) conjugated to CC49 (6.1 and 6.6 TCOs per molecule for major and minor, respectively). The two mAb solutions were diluted in PBS to obtain TCO concentrations ranging from 1×10^−5M to 1×10^−8M and were reacted with carrier-added ^177Lu-tetrazine (1 eq. with respect to mAb) for 1 min at 37° C. Aliquots of the reaction mixtures (20 μl) where then quenched with an excess of tetrazine 6, added with non-reducing sample buffer and analyzed by SDS-PAGE. The cycloaddition yields were determined from the radioactivity in the bands corresponding to the mAb and the counts were quantified with the AIDA Image Analyzer software. The experiments were repeated in triplicate. As expected for a bimolecular reaction, a decrease in the concentration of the two reactive species in solution translates into lower reaction yields after 1 min incubation (FIG. 18).

Series [3] is described as follows: Reactivity of tetrazines, competition experiment against reference tetrazine. The series is classed as physicochemical. To be noted: reference 3-(5-acetamido-2-pyridyl)-6-(2-pyridyl)-1,2,4,5-tetrazine; reaction with 10b. As to the method: A competition experiment was performed to determine the reactivity ratio of a specific tetrazine and 3-(5-acetamido-2-pyridyl)-6-(2-pyridyl)-1,2,4,5-tetrazine (that was chosen as the reference tetrazine), in the inverse-electron demand Diels-Alder reaction with trans-cyclooct-4-ene-1-ol (minor isomer, 10b).
To acetonitrile (0.100 mL) was added 5 μL of a solution of the specific tetrazine in DMSO (25 mM) and 5 μL of a solution of the reference tetrazine in DMSO (25 mM). This mixture was diluted with water (0.9 mL), and the absolute amounts of both tetrazines were determined by LC-MS/PDA analysis. Subsequently, a solution of trans-cyclooct-4-ene-1-ol (minor isomer, 10b) in DMSO (25 μL 2.5 mM) was added, and the mixture was stirred for 5 min. Again, the absolute amounts of both tetrazines were determined by LC-MS/PDA analysis, and conversions for both tetrazines was calculated. From these conversions, the reactivity ratio of both tetrazines was determined.

Series [4] in a line: Second order kinetic constants of the reactions between CC49-TCO constructs and ^177Lu-28. The following applies: TCO conjugated to CC49, reaction with ^177Lu-28 in PBS, pH 7.4 at 37° C. The series is classed as physicochemical. The method, then: Typically, 1 mg CC49 (5 mg/mL solution in PBS) was modified with 0.6 molar (for kinetic measurements) or 10 molar eq. (for in vivo studies) of TCO-NHS constructs in a total volume of 250 μL PBS. The pH was adjusted to 9 with 1 M sodium carbonate buffer. The reactions were carried out under agitation for 30 min at RT in the dark. Subsequently, the TCO-modified mAbs were extensively washed with PBS using Amicon Ultra-15 centrifugal devices. The numbers of TCO groups per antibody were determined with a tetrazine titration, outlined below.
Tetrazine-DOTA 28 was radiolabeled with carrier-added ^177Lu. mAb (25 μg) modified with ca. 0.6 molar eq. TCO was reacted with 3 molar eq. of ^177Lu-28 (0.5 nM). mAb (25 μg) modified with ca. 10 molar eq. TCO was reacted with 15 molar eq. of ^177Lu-28 (2.5 nM). The reactions were carried out in 50 μL PBS pH 7.4 at 37° C. for 10 min. The reaction mixtures were analyzed by SDS-PAGE and phosphor imager and the reaction yields were determined from the radioactivity in the bands corresponding to the mAb. The counts were quantified with AIDA Image Analyzer software (Raytest).
Tetrazine-DOTA 28 was radiolabeled with carrier-added ^177Lu at a specific activity of 3 MBq/μg. ^177Lu-28 (33 nM) was reacted with increasing concentrations of CC49 modified with 1 eq. of TCO (0.33, 1, and 1.67 μM) in 200 μL PBS, pH 7.4 at 37° C. for 5 min. At selected times (15, 30, 45, 60, 90, 120, 180, and 300 sec) a 20 μL sample was withdrawn and quenched with tetrazine 6 (FIG. 5; described in Rossin et al. Angew Chem Int Ed 2010, 49, 3375) (1.5 μL, 5 mg/mL in DMF). Aliquots of each mixture were analyzed by SDS-PAGE and phosphor imager and the cycloaddition yields were determined from the radioactivity in the bands corresponding to the mAb. The counts were quantified with AIDA Image Analyzer software (Raytest).
The newly synthesized TCO constructs were evaluated with respect to their reactivity towards tetrazine 28. The procedures are described in Example 5.

With `O=C(ON1C(=O)CCC1=O)c1ccc(COC2CC/C=C/CCC2)cc1` (centres unmarked) [20a, (E-major)-2,5-Dioxopyrrolidin-1-yl 4-((cyclooct-4-enyloxy)methyl)benzoate], the “time stable in vivo” value in series [1] (TCO bound to CC49, tumor-free mice) was “at least 4 days”. With `O=C(ON1C(=O)CCC1=O)c1ccc(COC2CC/C=C/CCC2)cc1` (centres unmarked) [20b, (E-minor)-2,5-Dioxopyrrolidin-1-yl 4-((cyclooct-4-enyloxy)methyl)benzoate], the “reaction yields with ^177Lu-tetrazine versus equatorial TCO 20a” value in series [2] is “significantly higher”. Also, in series [1], the “in vivo stability of CC49-bound TCO (reactive TCO in blood, corrected for mAb clearance)” value (“in vivo stability of CC49-bound TCO” below) was “only slowly degrade in vivo”. For the compound `CCCC(=O)Nc1ccc(-c2nnc(-c3ccc(F)cn3)nn2)nc1` [compound 38, 3-(5-Fluoro-2-pyridyl)-6-(5-butanamido-2-pyridyl)-1,2,4,5-tetrazine], in series [3], the k2/k2 ref is on record as 0.95.

`Cc1nnc(-c2ccccn2)nn1` [compound 40, 3-(2-Pyridyl)-6-methyl-1,2,4,5-tetrazine] returned a k2/k2 ref in series [3] of 0.25. In series [3], `c1cc(-c2nnc(-c3ccncc3)nn2)ccn1` [compound 42, 3,6-Bis(4-pyridyl)-1,2,4,5-tetrazine] returned a k2/k2 ref of 0.83.

In the case of `O=C(CCOCCOCCOCCOCCOCCOCCOCCOCCOCCOCCOCCOCCNC(=O)c1ccc(COC2CC/C=C/CCC2)cc1)ON1C(=O)CCC1=O` (centres unmarked) [23a, (E-major)-2,5-Dioxopyrrolidin-1-yl 1-(4-((cyclooct-4-en-1-yloxy)methyl)phenyl)-1-oxo-5,8,11,14,17,20,23,26,29,32,35,38-dodecaoxa-2-azahentetracontan-41-oate], the “Second order kinetic constant, PEG10 Spacer” value in series [4] is on record as “(23a) 16500 ± 1400 M^−1s^−1”. The “in vivo stability of CC49-bound TCO” value in series [1] is recorded as “unstable in vivo”. For `O=C(CCOCCOCCOCCOCCOCCOCCOCCOCCOCCOCCOCCOCCNC(=O)c1ccc(NC(=O)OC2CC/C=C/CCC2)cc1)ON1C(=O)CCC1=O` (centres unmarked) [27b, (E-minor)-2,5-dioxopyrrolidin-1-yl 1-(4-(((cyclooct-4-en-1-yloxy)carbonyl)amino)phenyl)-1-oxo-5,8,11,14,17,20,23,26,29,32,35,38-dodecaoxa-2-azahentetracontan-41-oate], the “Second order kinetic constant, PEG10 Spacer” value in series [4] was “(27b) 111600 ± 1800 M^−1s^−1”. For the same compound, the “in vivo stability of CC49-bound TCO” value in series [1] is given as “unstable in vivo”. In series [3], `CCCC(=O)Nc1ccc(-c2nnc(-c3ccc(C(F)(F)F)cn3)nn2)nc1` [compound 35, 3-(5-Butyramido-2-pyridyl)-6-(5-(trifluoromethyl)-2-pyridyl)-1,2,4,5-tetrazine] had a k2/k2 ref of 1.84.
